Experimental findings from patent US9090583B2, “Benzopyrone estrogen receptor regulator” (BEIJING SHENOGEN PHARMA GROUP LTD., priority 2010, dated 2015) are described below.

Values after ≈ are worked out from the molar mass of the structure shown. Where two headings read alike, the source gives them in different places.

In experiment [1] the test system is MDA-MB-231 cells. Nature of the experiment: CellTiter-Glo Luminescent Cell Viability Assay on ER-negative breast cancer MDA-MB-231 cells. Format: cell-based. As to conditions: average ± standard deviation when tested more than 3 times, read-out: Inhibition of the viability of breast cancer cells, IC50. The gist of the method: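 Cells seeded at 6×10^3 per well in DMEM with 10% FCS and exposed 72 h to compound at 0 to 100 μM (twelve concentrations, DMSO vehicle). Viability measured by CellTiter-Glo luminescence.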

In experiment [2] the test system is MCF7 cells. The experiment can be described thus: CellTiter-Glo Luminescent Cell Viability Assay on ER-positive breast cancer MCF-7 cells. Format: cell-based, human. Particulars: average ± standard deviation when tested more than 3 times, read-out: Inhibition of the viability of breast cancer cells, IC50. The essentials:
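MCF7 cells (DMEM, 10% FCS, 37 °C) treated 72 h with compound at 0–100 μM (0.3, 0.5, 1, 2, 3, 5, 10, 20, 30, 50, 100 μM). Viability measured by CellTiter-Glo luminescence.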

The subject of experiment [3] is Hep3B2.1-7 cells. Nature of the experiment: MTT assay, in vitro growth of liver cancer Hep3B2.1-7 cells. Format: cell-based. Particulars: 72 hours; for IC50: read-out: Inhibition on liver cancer cells, IC50. Here is the method: The liver cancer Hep3B2.1-7 cells were obtained from ATCC. Cells were incubated in 1640 culture medium with 5% fetal calf serum and 100 U/ml double-antibody in a cell incubator at 37° C., 5% CO2 atmosphere and passaged via conventional methods. The sample was dissolved in DMSO, formulated into 50 mg/ml stocking solution, and stored at 4° C. The test solutions at 50, 25, 12.5 and 6.25 μg/ml were formulated with culture medium immediately before use.
The adherent cells were digested with cell digestive solution, and then the exfoliated cells were collected and counted. The cell suspension was formulated with 1640 culture medium containing 5% fetal calf serum (5.0×10^4/ml). The cell suspension was seeded on 96-well plate with 100 μl/well, and maintained in a cell incubator at 37° C., 5% CO2 atmosphere for 24 hours. After that, the compounds at various concentrations were added, where solvent was taken as negative control and Taxol as positive control. 10 μl MTT (5 mg/ml) was added after 72 hours. The supernatant was removed after cultivation for 3 hours more, 150 μl DMSO was added and the formazan was dissolved on shaking. OD values were measured at 570 nm after homogeneous mixing, and inhibition rate and IC50 values were calculated based on the mean of OD values from 3 wells.

The subject of experiment [4] is SK-OV3 cells. Nature of the experiment: CellTiter-Glo Luminescent Cell Viability Assay on ovary cancer SK-OV3 cells. Format: cell-based. As to conditions: Homo sapiens, SK-OV-3, 72 hours, read-out: Inhibition of the viability of ovary cancer cells, IC50. As to the method: C: In Vitro CellTiter-Glo® Luminescent Cell Viability Assay on Ovary Cancer SK-OV3 Cells
(§1) The ovary cancer SK-OV3 cells were obtained from Cancer hospital, Chinese Academy of Medical Sciences and maintained in RPMI-1640 and 10% fetal calf serum at 37° C., under 5% CO2 atmosphere. The cells were seeded on 96-well plate at a density of 6×10^3 cells per well. SK-OV3 cells were treated with a test compound dissolved in DMSO at the concentrations of zero, 0.3 μM, 0.5 μM, 1 μM, 2 μM, 3 μM, 5 μM, 10 μM, 20 μM, 30 μM, 50 μM and 100 μM for 72 hours. Treated cells were examined by CellTiter-Glo® Luminescent Cell Viability Assay Kit (Promega), and luminescence values were recorded with Envision.

In experiment [5] the test system is CoC1 cells. Nature of the experiment: CellTiter-Glo Luminescent Cell Viability Assay on ovary cancer CoC1 cells. Type of experiment: cell-based. Particulars: 72 hours, read-out: Inhibition of the viability of ovary cancer cells, IC50. As to the method: B: In Vitro CellTiter-Glo® Luminescent Cell Viability Assay on Ovary Cancer CoC1 Cells
The ovary cancer CoC1 cells were obtained from Cancer hospital, Chinese Academy of Medical Sciences and maintained in RPMI-1640 and 10% fetal calf serum at 37° C., under 5% CO2 atmosphere. The cells were seeded on 96-well plate at a density of 6×10^3 cells per well. CoC1 cells were treated with a test compound dissolved in DMSO at the concentrations of zero, 0.3 μM, 0.5 μM, 1 μM, 2 μM, 3 μM, 5 μM, 10 μM, 30 μM, 50 μM and 100 μM for 72 hours. Treated cells were examined by CellTiter-Glo® Luminescent Cell Viability Assay Kit (Promega), and luminescence values were recorded with Envision.

Experiment [6] relates to HO8910 cells. Nature of the experiment: CellTiter-Glo Luminescent Cell Viability Assay on ovary cancer HO8910 cells. As to conditions: HO-8910 cells; 72 hours; read-out: Inhibition of the viability of ovary cancer cells, IC50. Type of experiment: cell-based. Here is the method: A: In Vitro CellTiter-Glo® Luminescent Cell Viability Assay on Ovary Cancer HO8910 Cells
as §1, with “Ovary” for “The ovary”, “HO8910” for “SK-OV3”, “Type Culture Collection of the” for “Cancer hospital,”, “Sciences, Shanghai,” for “Medical Sciences”

As for “2-(4-fluoromethoxyphenyl)-5,7-dihydroxy-3-methoxy-6,8-di(3-methyl-2-buten-1-yl)-4H-benzopyran-4-one [Compound 61]”, the half-inhibitory concentration (IC50) in experiment [1] (72 hours) is 3.28 µM; in experiment [2] (72 hours) it was 3.52 µM. Besides, the “Inhibition on liver cancer cells, IC50” value in experiment [3] came to 0.04 µg/mL.
`COc1c(-c2ccc(Cl)cc2)oc2c(CC=C(C)C)c(O)c(CC=C(C)C)c(O)c2c1=O` [Compound 10, 2-(4-chlorophenyl)-5,7-dihydroxy-3-methoxy-6,8-di(3-methyl-2-butylene-1-yl)-4H-benzopyran-4-one]: the values for the IC50 in experiment [1] (72 hours) and in experiment [2] (72 hours) were 8.89 µM and more than 100 µM, respectively. Besides, the “Inhibition on liver cancer cells, IC50” value in experiment [3] was found to be 9.43 µg/mL.
For the molecule `COc1ccc(-c2oc3c(CC=C(C)C)c(O)c(CC=C(C)C)c(O)c3c(=O)c2OC)cn1` [Compound 26, 2-(6-methoxypyridin-3-yl)-5,7-dihydroxy-3-methoxy-6,8-di(3-methyl-2-buten-1-yl)-4H-benzopyran-4-one], the IC50 in experiment [1] (Homo sapiens, MDA-MB-231, 72 h) turned out to be 12.8 ± 1.78 µM; in experiment [2] (Homo sapiens, MCF7, 72 h), 11 ± 1.34 µM; in experiment [4], 40.1 µM; in experiment [5] it was 17.8 µM; in experiment [6] it was 24.3 µM.
Consider `COc1c(-c2ccc(C#N)cc2)oc2c(CC=C(C)C)c(O)c(CC=C(C)C)c(O)c2c1=O` [Compound 57, 4-[5,7-dihydroxy-3-methoxy-6,8-di(3-methyl-2-butenyl)-4-oxo-4H-benzopyran-2-yl]benzonitrile], for which the IC50 in experiment [1] (Homo sapiens, MDA-MB-231, 72 h) was 2.85 µM; in experiment [2] (Homo sapiens, MCF7, 72 h), 4.84 µM; in experiment [3], 21 µg/mL (≈ 47.2 µM).
Turning to `COc1c(-c2ccc(C(N)=O)cc2)oc2c(CC=C(C)C)c(O)c(CC=C(C)C)c(O)c2c1=O` [Compound 60, 4-[5,7-dihydroxy-3-methoxy-6,8-di(3-methyl-2-buten-1-yl)-4-oxo-4H-benzopyran-2-yl]benzamide], the IC50 in experiment [1] (Homo sapiens, MDA-MB-231, 72 h) was determined as 6.36 µM; in experiment [2] (Homo sapiens, MCF7, 72 h), 3.02 µM; in experiment [3] it was 9.95 µg/mL (≈ 21.5 µM).
In the case of `COc1c(-c2ccc(S(N)(=O)=O)cc2)oc2c(CC=C(C)C)c(O)c(CC=C(C)C)c(O)c2c1=O` [Compound 63, 4-[5,7-dihydroxy-3-methoxy-6,8-di(3-methyl-2-buten-1-yl)-4-oxo-4H-benzopyran-2-yl]benzene sulfonamide], the IC50 amounted to 4.87 µM in experiment [1] (Homo sapiens, MDA-MB-231, 72 h); 6.06 µM in experiment [2] (Homo sapiens, MCF7, 72 h); 14 µg/mL (≈ 28 µM) in experiment [3].
As for `COc1c(-c2ccc(C(C)(C)O)cc2)oc2c(CC=C(C)C)c(O)c(CC=C(C)C)c(O)c2c1=O` [Compound 66], the half-maximal inhibitory concentration (IC50) in experiment [1] (72 hours) was determined as 2.86 µM; in experiment [2] (72 hours), 3.91 µM. Further, the “Inhibition on liver cancer cells, IC50” value in experiment [3] stood at 0.24 µg/mL.
On to `COc1c(-c2ccc(S(=O)(=O)N(C)C)cc2)oc2c(CC=C(C)C)c(O)c(CC=C(C)C)c(O)c2c1=O` [Compound 69, 4-[5,7-dihydroxy-3-methoxy-6,8-di(3-methyl-2-buten-1-yl)-4-oxo-4H-benzopyran-2-yl]-N,N-dimethylbenzene sulfonamide], for which the IC50 was 1.87 µM in experiment [1] (Homo sapiens, MDA-MB-231, 72 h); more than 100 µM in experiment [2] (Homo sapiens, MCF7, 72 h); 3.89 µg/mL (≈ 7.37 µM) in experiment [3].
Take `CNS(=O)(=O)c1ccc(-c2oc3c(CC=C(C)C)c(O)c(CC=C(C)C)c(O)c3c(=O)c2OC)cc1` [Compound 70, 4-[5,7-dihydroxy-3-methoxy-6,8-di(3-methyl-2-buten-1-yl)-4-oxo-4H-benzopyran-2-yl]N-methylbenzene sulfonamide]: the IC50 is 7.64 µM in experiment [1] (Homo sapiens, MDA-MB-231, 72 h); more than 100 µM in experiment [2] (Homo sapiens, MCF7, 72 h); 0.39 µg/mL (≈ 0.759 µM) in experiment [3].
On to `COc1c(-c2ccc(O)c(C)c2)oc2c(CC=C(C)C)c(O)c(CC=C(C)C)c(O)c2c1=O` [Compound 75, 2-(3-methyl-4-hydroxyphenyl)-5,7-dihydroxy-3-methoxy-6,8-di(3-methyl-2-buten-1-yl)-4H-benzopyran-4-one], for which the IC50 in experiment [1] (Homo sapiens, MDA-MB-231, 72 h) was 11.6 µM; in experiment [2] (Homo sapiens, MCF7, 72 h), 49 µM; in experiment [3], 0.83 µg/mL (≈ 1.84 µM).
As for `COc1c(-c2ccc(O)c(Cl)c2)oc2c(CC=C(C)C)c(O)c(CC=C(C)C)c(O)c2c1=O` [Compound 76, 2-(3-chloro-4-hydroxyphenyl)-5,7-dihydroxy-3-methoxy-6,8-di(3-methyl-2-buten-1-yl)-4H-benzopyran-4-one], the 50% inhibitory concentration (IC50) in experiment [1] (Homo sapiens, MDA-MB-231, 72 h) is 3 µM; in experiment [2] (Homo sapiens, MCF7, 72 h), 4.08 µM; in experiment [3] it was 5.79 µg/mL (≈ 12.3 µM).
Consider `COc1c(-c2ccc(O)c(C(F)(F)F)c2)oc2c(CC=C(C)C)c(O)c(CC=C(C)C)c(O)c2c1=O` [Compound 77, 2-(3-trifluoromethyl-4-hydroxyphenyl)-5,7-dihydroxy-3-methoxy-6,8-di(3-methyl-2-buten-1-yl)-4H-benzopyran-4-one], for which the IC50 in experiment [1] (Homo sapiens, MDA-MB-231, 72 h) is 15.4 µM; in experiment [2] (Homo sapiens, MCF7, 72 h), more than 100 µM; in experiment [3] it was 3.08 µg/mL (≈ 6.11 µM).
Take `COc1c(-c2ccc(F)c(O)c2)oc2c(CC=C(C)C)c(O)c(CC=C(C)C)c(O)c2c1=O` [Compound 78, 2-(3-hydroxy-4-fluorophenyl)-5,7-dihydroxy-3-methoxy-6,8-di(3-methyl-2-buten-1-yl)-4H-benzopyran-4-one]: the IC50 was 5.36 µM in experiment [1] (Homo sapiens, MDA-MB-231, 72 h); 5.46 µM in experiment [2] (Homo sapiens, MCF7, 72 h); 8.95 µg/mL (≈ 19.7 µM) in experiment [3].
Take `COc1c(-c2ccc(O)c(F)c2)oc2c(CC=C(C)C)c(O)c(CC=C(C)C)c(O)c2c1=O` [Compound 79, 2-(3-fluoro-4-hydroxyphenyl)-5,7-dihydroxy-3-methoxy-6,8-di(3-methyl-2-buten-1-yl)-4H-benzopyran-4-one]: the 50% inhibitory concentration (IC50) turned out to be 3.64 µM in experiment [1] (Homo sapiens, MDA-MB-231, 72 h); 5.33 µM in experiment [2] (Homo sapiens, MCF7, 72 h); 8.23 µg/mL (≈ 18.1 µM) in experiment [3].
As to `CC(C)=CCc1c(O)c(CC=C(C)C)c2oc(-c3ccc(Cl)c(F)c3)c(C)c(=O)c2c1O` [Compound 94, 2-(3-fluoro-4-chlorophenyl)-3-methyl-5,7-dihydroxy-6,8-di(3-methyl-2-buten-1-yl)-4H-benzopyran-4-one], the half-inhibitory concentration (IC50) amounted to 31.3 µM in experiment [1] (Homo sapiens, MDA-MB-231, 72 h) and 15.6 µM in experiment [2] (Homo sapiens, MCF7, 72 h).
For `CC(C)=CCc1c(O)c(CC=C(C)C)c2oc(-c3ccc(F)c(F)c3)c(O)c(=O)c2c1O` [Compound 95, 2-(3,4-difluorophenyl)-3,5,7-trihydroxy-6,8-di(3-methyl-2-buten-1-yl)-4H-benzopyran-4-one], the IC50 is 10.4 ± 1.93 µM in experiment [1] (Homo sapiens, MDA-MB-231, 72 h) and 6.62 ± 1.93 µM in experiment [2] (Homo sapiens, MCF7, 72 h).
In the case of `CC(C)=CCc1c(O)c(CC=C(C)C)c2oc(-c3ccc(Cl)c(F)c3)c(O)c(=O)c2c1O` [Compound 96, 2-(3-fluoro-4-chlorophenyl)-3,5,7-trihydroxy-6,8-di(3-methyl-2-buten-1-yl)-4H-benzopyran-4-one], the IC50 in experiment [1] (Homo sapiens, MDA-MB-231, 72 h) was 10.4 µM; in experiment [2] (Homo sapiens, MCF7, 72 h), more than 100 µM.
As for `CC(=O)O[C@H]1C(=O)[C@@]2(C)[C@H]([C@H](OC(=O)c3ccccc3)[C@]3(O)C[C@H](OC(=O)[C@H](O)[C@@H](NC(=O)c4ccccc4)c4ccccc4)C(C)=C1C3(C)C)[C@]1(OC(C)=O)CO[C@@H]1C[C@@H]2O` [Taxol, reference compound], the IC50 in experiment [3] came to 42.8 µg/mL (≈ 50.1 µM).
